Experimental data taken from the supplement of paper PMC8612539.

Tested on: Mannheimia haemolytica
Experiment: minimum inhibitory concentration (MIC)
Method: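 Broth microdilution MIC (Sensititre BOPO7F bovine plate, CLSI methods) of 19 antimicrobials against field isolates of P. multocida, M. haemolytica, H. somni (deep nasopharyngeal swabs) and E. coli, Enterococcus spp. (rectal swabs) from weaned dairy heifers. Incubation 16-24 h at 35 C. MIC is the lowest concentration preventing visible growth. Values with <= or > lie at the tested range limits. Trimethoprim-sulfamethoxazole is given as the trimethoprim component of a 1:19 mixture.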

COc1cc(NS(=O)(=O)c2ccc(N)cc2)nc(OC)n1 [sulfadimethoxine]
Settings	minimum inhibitory concentration [µg/mL]
isolate (source animal id): 8	> 256
isolate (source animal id): 13	> 256
isolate (source animal id): 18	> 256
isolate (source animal id): 21	> 256
isolate (source animal id): 25	> 256
isolate (source animal id): 27	> 256
isolate (source animal id): 28	≤ 256
isolate (source animal id): 30	> 256
isolate (source animal id): 31	≤ 256
isolate (source animal id): 32	> 256
isolate (source animal id): 34	> 256
isolate (source animal id): 36	> 256
isolate (source animal id): 37	> 256
isolate (source animal id): 40	> 256
isolate (source animal id): 41	> 256
isolate (source animal id): 43	> 256
isolate (source animal id): 46	> 256
isolate (source animal id): 49	> 256
isolate (source animal id): 50	> 256
isolate (source animal id): 51	> 256
isolate (source animal id): 52	> 256
isolate (source animal id): 53	> 256
isolate (source animal id): 55	> 256
isolate (source animal id): 56	> 256
isolate (source animal id): 57	> 256
isolate (source animal id): 100	> 256
isolate (source animal id): 103	> 256
isolate (source animal id): 107	> 256
isolate (source animal id): 108	> 256
isolate (source animal id): 112	> 256
isolate (source animal id): 113	> 256
isolate (source animal id): 121	> 256
isolate (source animal id): 122	> 256
isolate (source animal id): 123	> 256
isolate (source animal id): 126	> 256
isolate (source animal id): 133	> 256
isolate (source animal id): 135	> 256
isolate (source animal id): 138	> 256
isolate (source animal id): 141	> 256
isolate (source animal id): 142	> 256
isolate (source animal id): 145	> 256
isolate (source animal id): 149	≤ 256
isolate (source animal id): 151	≤ 256
isolate (source animal id): 152	≤ 256
isolate (source animal id): 154	≤ 256
isolate (source animal id): 159	> 256
isolate (source animal id): 162	> 256
isolate (source animal id): 170	> 256
isolate (source animal id): 171	> 256
isolate (source animal id): 172	> 256
isolate (source animal id): 173	> 256
isolate (source animal id): 179	> 256
isolate (source animal id): 180	> 256
isolate (source animal id): 183	> 256
isolate (source animal id): 186	> 256
isolate (source animal id): 187	> 256
isolate (source animal id): 188	> 256
isolate (source animal id): 190	> 256
isolate (source animal id): 191	> 256
isolate (source animal id): 192	> 256
isolate (source animal id): 201	> 256
isolate (source animal id): 202	> 256
isolate (source animal id): 209	> 256
isolate (source animal id): 211	≤ 256
isolate (source animal id): 220	> 256
isolate (source animal id): 221	> 256
isolate (source animal id): 223	> 256
isolate (source animal id): 233	> 256
isolate (source animal id): 237	≤ 256
isolate (source animal id): 241	> 256
isolate (source animal id): 252	> 256
isolate (source animal id): 253	> 256
isolate (source animal id): 259	> 256
isolate (source animal id): 260	> 256
isolate (source animal id): 262	> 256
isolate (source animal id): 282	> 256
isolate (source animal id): 287	> 256
